Measured values taken from patent US9040903B2, “Precursor selection using an artificial intelligence algorithm increases proteomic sample coverage and reproducibility” (Wisconsin Alumni Research Foundation, priority 2011, dated 2015).

What was measured:
[1] = system: mouse skeletal muscle myotubes; assay: Immunoblot of mitochondrial proteins after iron chelation of myotubes; type: cell-based
[2] = system: human embryonic stem cells (ESCs); assay: TMT 6-plex isobaric tag quantitation of human embryonic stem cells before and two days after BMP4 treatment (inSeq-triggered QuantMode scans); type: cell-based; conditions: two days post treatment
Experimental: To assess this decision node, a sample comprising three biological replicates of human embryonic stem cells (ESCs) was analyzed pre- and two days-post bone morphogenetic protein 4 (BMP4) treatment (i.e., TMT 6-plex, three pre-treatment and three post BMP4 treatment cell populations). BMP4, a growth factor that induces context-dependent differentiation in pluripotent stem cells, is widely used to study differentiation to biologically relevant cell lineages such as mesoderm and endoderm. […] Here the ratio of change between control and treatment cell lines measured in one QM scan is large (5.86) but not significant (P=0.067, Student's t-test with Storey correction) (34). Note significance testing was accomplished by assessing variation within the three biological replicates of both treatment and control cell lines. The measured ratio remains relatively unchanged (5.22 and 5.43) as reporter tag signal from additional quantitation scans are added; however, the corresponding P-values decrease to 0.014 and 0.012 when two or three quantitation scans are summed. […] Ideally this log2 ratio would be zero, indicating perfect biological replication; however, when only one quantitation scan is employed this ratio severely deviates from zero with decreasing tag intensity. To improve overall data quality and to omit potentially erroneous measurements arbitrary reporter signal cutoffs (dashed vertical line in FIG. 16B) can be employed. These cutoffs eliminate many low-abundance peptides which often represent proteins of interest. Summation of additional quantitation scans increases the average reporter tag intensity, raising nearly all of the protein measurements above the intensity cutoff value (74, 9, and 4 proteins omitted using one, two, and three quantification scans, respectively).
Human embryonic stem cells (line H1) were maintained in feeder independent media as previously described (Chen et al). […]
TMT quantification was performed using TagQuant within COMPASS. […]

## CC(=O)N(O)CCCCCNC(=O)CCC(=O)N(O)CCCCCNC(=O)CCC(=O)N(O)CCCCCN [DFO, desferrioxamine]
[1]; mouse myotube C2C12 cells, 100 μM
  cell death: without causing cell death
[1]; mouse myotube C2C12 cells, 100 μM, 24 hrs
  decrease in mitochondrial proteins: marked decrease in mitochondrial proteins
[1]; mouse skeletal muscle myotubes, FIG. 12
  levels of the mitochondrial voltage dependent anion channel (VDAC): unchanging levels
[1]; mouse skeletal muscle myotubes, dose-dependent and time-dependent, FIG. 12
  loss of proteins involved in mitochondrial oxidative phosphorylation (OXPHOS): induces loss of proteins involved in mitochondrial oxidative phosphorylation (OXPHOS)

B1: bone morphogenetic protein 4 (protein, UniProt P12644 293-408, looked up)
Bone morphogenetic protein 4: SPKHHSQRARKKNKNCRRHSLYVDFSDVGWNDWIVAPPGYQAFYCHGDCPFPLADHLNSTNHAIVQTLVNSVNSSIPKACCVPTELSAISMLYLDEYDKVVLKNYQEMVVEGCGCR
[2]; one QM scan, P=0.067
  ratio of change between control and treatment cell lines, peptide FCADHPFLFFIR (SEQ ID NO:3) from protein SERPINB8: 5.86
[2]; three quantitation scans summed, P=0.012
  ratio of change between control and treatment cell lines, peptide FCADHPFLFFIR (SEQ ID NO:3) from protein SERPINB8: 5.43
[2]; two quantitation scans summed, P=0.014
  ratio of change between control and treatment cell lines, peptide FCADHPFLFFIR (SEQ ID NO:3) from protein SERPINB8: 5.22
